# Data as given in PMC8474115 (Journal of Medicinal Chemistry, 2021).
# Structures can show the parent of a compound that is named as a salt. Where two headings read alike, the source gives them in different places.
# Tests used:
# [1] = molecular target: T1, Norepinephrine Transporter (NET) (Homo sapiens, UniProt P23975); test: Eurofins SafetyScreen panel; assay type: binding
# T1 construct: Eurofins (contract screening, SafetyScreen panel) PP223
# Glutamate NMDA, Glycine = Glutamate NMDA, Glycine (Rattus norvegicus, UniProt P35439); test: Eurofins SafetyScreen panel; assay type: binding
# Serotonin 5-HT1A = molecular target: T2, Serotonin 5-HT1A (Homo sapiens, UniProt P08908); test: Eurofins SafetyScreen panel; assay type: binding
# T2 construct: Eurofins (contract assay)
# T2 sequence (P08908 1-422): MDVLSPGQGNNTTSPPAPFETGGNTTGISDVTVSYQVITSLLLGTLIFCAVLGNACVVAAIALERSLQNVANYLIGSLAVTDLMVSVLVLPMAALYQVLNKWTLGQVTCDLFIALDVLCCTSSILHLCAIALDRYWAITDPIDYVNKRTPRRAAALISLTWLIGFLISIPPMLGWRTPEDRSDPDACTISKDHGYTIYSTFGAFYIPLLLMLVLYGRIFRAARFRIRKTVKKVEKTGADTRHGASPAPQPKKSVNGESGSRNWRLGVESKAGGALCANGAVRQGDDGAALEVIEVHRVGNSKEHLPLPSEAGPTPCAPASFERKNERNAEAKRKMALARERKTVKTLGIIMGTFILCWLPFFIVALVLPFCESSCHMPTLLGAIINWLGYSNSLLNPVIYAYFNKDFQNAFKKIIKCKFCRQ
# Cathepsin G = molecular target: T3, Cathepsin G (Homo sapiens, UniProt P08311); test: Eurofins SafetyScreen panel; assay type: biochemical
# T3 construct: Eurofins
# Adrenergic α1A = molecular target: T4, Adrenergic α1A (Rattus norvegicus, UniProt P43140); test: Eurofins SafetyScreen panel; assay type: binding
# T4 construct: Eurofins (contract screening, SafetyScreen panel) PP223
# Histamine H2 = molecular target: T5, Histamine H2 (Homo sapiens, UniProt P25021); test: Eurofins SafetyScreen panel; assay type: binding
# T5 construct: purchased Eurofins (Panlabs) SafetyScreen87 Panel
# Melanocortin MC4 = molecular target: T6, Melanocortin MC4 (Homo sapiens, UniProt P32245); test: Eurofins SafetyScreen panel; assay type: binding
# T6 construct: purchased Eurofins (Panlabs) SafetyScreen87 Panel
# Adrenergic α1B = molecular target: T7, Adrenergic α1B (Rattus norvegicus, UniProt P15823); test: Eurofins SafetyScreen panel; assay type: binding
# T7 construct: Eurofins (contract screening, SafetyScreen panel) PP223
# CYP2D6 = CYP2D6 (Homo sapiens, UniProt P10635); test: Cytochrome P450 inhibition (Eurofins); details: at 10 μM; listed as 17, 10 µM
# Chemokine CCR2 (IL-8RB) = molecular target: T8, Chemokine CCR2 (IL-8RB) (Homo sapiens, UniProt P25025); test: Eurofins SafetyScreen panel; assay type: binding; details: read-out: %inh
# T8 construct: purchased Eurofins (Panlabs) SafetyScreen87 Panel
# Chemokine CCR1 = molecular target: T9, Chemokine CCR1 (Homo sapiens, UniProt P32246); test: Eurofins SafetyScreen panel; assay type: binding
# T9 construct: purchased Eurofins (Panlabs) SafetyScreen87 Panel
# Adrenergic α1D = molecular target: T10, Adrenergic α1D (Homo sapiens, UniProt P25100); test: Eurofins SafetyScreen panel; assay type: binding
# T10 construct: Eurofins (contract screening, SafetyScreen panel) PP223
# COX-1 = molecular target: T11, COX-1 (Homo sapiens, UniProt P23219); test: Eurofins SafetyScreen panel; assay type: biochemical
# T11 construct: Eurofins
# Muscarinic M2 = molecular target: T12, Muscarinic M2 (Homo sapiens, UniProt P08172); test: Eurofins SafetyScreen panel; assay type: binding
# T12 construct: Eurofins (contract screening, SafetyScreen panel) PP223
# Opiate σ1 (OP1, DOP) = molecular target: T13, Opiate σ1 (OP1, DOP) (Homo sapiens, UniProt P41143); test: Eurofins SafetyScreen panel; assay type: binding; details: read-out: %inh
# T13 construct: Eurofins (contract assay)
# CYP2C19 = CYP2C19 (Homo sapiens, UniProt P33261); test: Cytochrome P450 inhibition (Eurofins)
# [2] = molecular target: T14, Platelet Activating Factor (PAF) (Homo sapiens, UniProt P25105); test: Eurofins SafetyScreen panel; assay type: binding
# T14 construct: Eurofins (contract assay)
# Serotonin 5-HT4 = molecular target: T15, Serotonin 5-HT4 (Cavia porcellus, UniProt O70528); test: Eurofins SafetyScreen panel; assay type: binding, guinea pig
# T15 construct: Eurofins (contract assay) 272000
# MAO-A = molecular target: T16, MAO-A (Homo sapiens, UniProt P21397); test: Eurofins SafetyScreen panel; assay type: biochemical
# T16 construct: Eurofins
# h5-HT1A = h5-HT1A (Homo sapiens, UniProt P08908); details: 5-HT1AR
# Description: For membrane preparation, cells after reaching 90% confluence, were washed with phosphate-buffered saline (PBS), and pelleted by centrifugation (200 × g) in PBS containing 0.1 mM EDTA and 1 mM dithiothreitol.
# The total reaction volume was 200 μL. The incubation process was terminated by filtration through UniFilter-96 (PerkinElmer) plates with the FilterMate Universal Harvester (PerkinElmer, #C961962), and radioactivity retained on the filters was quantified on a MicroBeta counter for radiometric detection (PerkinElmer). […] To evaluate the level of nonspecific signal 10 μM of 5-HT for 5-HT1AR and 5-HT7R, 20 μM of mianserin for 5-HT2AR, 10 μM of methiothepine for 5-HT6R and 10 μM of haloperidol for D2LR were used. […] The acquired results were presented as the mean of at least two independent experiments.
# Tachykinin NK1 = molecular target: T17, Tachykinin NK1 (Homo sapiens, UniProt P25103); test: Eurofins SafetyScreen panel; assay type: binding
# T17 construct: Eurofins (contract assay)
# [3] = molecular target: T18, Leukotriene, Cysteinyl CysLT1 (Homo sapiens, UniProt Q9Y271); test: Eurofins SafetyScreen panel; assay type: binding
# T18 construct: purchased Eurofins (Panlabs) SafetyScreen87 Panel
# GABAB1A = molecular target: T19, GABAB1A (Homo sapiens, UniProt Q9UBS5); test: Eurofins SafetyScreen panel; assay type: binding
# T19 construct: purchased Eurofins (Panlabs) SafetyScreen87 Panel
# Adrenergic α2A = molecular target: T20, Adrenergic α2A (Homo sapiens, UniProt P08913); test: Eurofins SafetyScreen panel; assay type: binding
# T20 construct: Eurofins (contract screening, SafetyScreen panel) PP223
# T20 sequence (P08913 1-465): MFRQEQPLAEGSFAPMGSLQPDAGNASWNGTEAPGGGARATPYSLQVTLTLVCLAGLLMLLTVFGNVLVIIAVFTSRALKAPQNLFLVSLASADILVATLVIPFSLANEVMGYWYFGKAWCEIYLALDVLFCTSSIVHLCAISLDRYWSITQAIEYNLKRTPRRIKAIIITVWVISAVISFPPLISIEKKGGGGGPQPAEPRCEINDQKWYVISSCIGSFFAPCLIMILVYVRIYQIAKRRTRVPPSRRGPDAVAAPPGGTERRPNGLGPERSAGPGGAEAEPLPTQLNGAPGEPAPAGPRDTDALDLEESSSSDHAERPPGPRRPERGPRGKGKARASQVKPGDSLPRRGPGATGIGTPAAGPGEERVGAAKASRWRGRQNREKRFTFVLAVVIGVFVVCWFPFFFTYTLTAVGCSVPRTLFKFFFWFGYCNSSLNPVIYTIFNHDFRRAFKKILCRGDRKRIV
# [4] = read-out: %inh, 10 μM, additional batch
# T1 sequence (P23975 whole entry): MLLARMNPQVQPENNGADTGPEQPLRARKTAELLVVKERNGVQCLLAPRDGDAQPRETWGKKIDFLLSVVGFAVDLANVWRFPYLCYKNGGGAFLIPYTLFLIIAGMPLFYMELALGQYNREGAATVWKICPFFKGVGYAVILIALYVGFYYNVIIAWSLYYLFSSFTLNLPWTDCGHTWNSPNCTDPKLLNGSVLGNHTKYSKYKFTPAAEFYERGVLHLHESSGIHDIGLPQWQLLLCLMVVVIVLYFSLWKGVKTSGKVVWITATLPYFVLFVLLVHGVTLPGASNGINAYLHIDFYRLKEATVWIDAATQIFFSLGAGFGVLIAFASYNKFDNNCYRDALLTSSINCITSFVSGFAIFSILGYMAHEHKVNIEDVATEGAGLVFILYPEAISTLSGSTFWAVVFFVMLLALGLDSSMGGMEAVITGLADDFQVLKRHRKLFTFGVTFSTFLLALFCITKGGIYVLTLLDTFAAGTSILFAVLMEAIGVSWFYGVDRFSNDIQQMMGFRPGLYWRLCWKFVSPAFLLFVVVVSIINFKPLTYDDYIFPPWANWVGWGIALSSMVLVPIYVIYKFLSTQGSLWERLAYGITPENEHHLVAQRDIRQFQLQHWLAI
# T17 sequence (P25103 whole entry): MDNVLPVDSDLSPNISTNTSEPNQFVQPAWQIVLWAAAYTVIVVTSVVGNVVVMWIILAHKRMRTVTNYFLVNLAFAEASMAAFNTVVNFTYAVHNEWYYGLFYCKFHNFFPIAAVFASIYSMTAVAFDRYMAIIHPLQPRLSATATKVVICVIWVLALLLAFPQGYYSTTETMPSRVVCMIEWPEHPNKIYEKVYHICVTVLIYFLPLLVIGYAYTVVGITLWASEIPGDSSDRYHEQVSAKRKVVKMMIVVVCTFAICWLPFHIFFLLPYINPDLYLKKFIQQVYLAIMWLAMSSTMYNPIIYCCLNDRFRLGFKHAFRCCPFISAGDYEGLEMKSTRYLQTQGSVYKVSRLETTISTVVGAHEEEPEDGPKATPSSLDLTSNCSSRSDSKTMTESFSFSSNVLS
# T13 sequence (P41143 whole entry): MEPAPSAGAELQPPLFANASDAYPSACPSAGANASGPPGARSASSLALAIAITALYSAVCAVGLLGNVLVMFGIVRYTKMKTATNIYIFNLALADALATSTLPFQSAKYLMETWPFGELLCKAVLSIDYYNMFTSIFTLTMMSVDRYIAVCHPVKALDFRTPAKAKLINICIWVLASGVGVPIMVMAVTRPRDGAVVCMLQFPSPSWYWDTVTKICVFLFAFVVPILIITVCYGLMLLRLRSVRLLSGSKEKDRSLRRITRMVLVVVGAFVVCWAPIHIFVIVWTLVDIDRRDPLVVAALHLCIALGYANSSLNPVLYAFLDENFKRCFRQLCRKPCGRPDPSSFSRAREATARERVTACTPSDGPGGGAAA
# T6 sequence (P32245 whole entry): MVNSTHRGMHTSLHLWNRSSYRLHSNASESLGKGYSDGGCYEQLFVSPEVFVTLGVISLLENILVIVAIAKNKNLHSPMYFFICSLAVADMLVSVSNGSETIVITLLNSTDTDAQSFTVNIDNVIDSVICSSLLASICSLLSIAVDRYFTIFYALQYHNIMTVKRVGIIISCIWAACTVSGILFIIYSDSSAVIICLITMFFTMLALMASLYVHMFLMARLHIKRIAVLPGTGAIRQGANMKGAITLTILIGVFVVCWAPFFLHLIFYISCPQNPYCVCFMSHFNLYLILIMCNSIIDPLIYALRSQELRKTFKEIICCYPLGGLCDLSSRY
# T4 sequence (P43140 whole entry): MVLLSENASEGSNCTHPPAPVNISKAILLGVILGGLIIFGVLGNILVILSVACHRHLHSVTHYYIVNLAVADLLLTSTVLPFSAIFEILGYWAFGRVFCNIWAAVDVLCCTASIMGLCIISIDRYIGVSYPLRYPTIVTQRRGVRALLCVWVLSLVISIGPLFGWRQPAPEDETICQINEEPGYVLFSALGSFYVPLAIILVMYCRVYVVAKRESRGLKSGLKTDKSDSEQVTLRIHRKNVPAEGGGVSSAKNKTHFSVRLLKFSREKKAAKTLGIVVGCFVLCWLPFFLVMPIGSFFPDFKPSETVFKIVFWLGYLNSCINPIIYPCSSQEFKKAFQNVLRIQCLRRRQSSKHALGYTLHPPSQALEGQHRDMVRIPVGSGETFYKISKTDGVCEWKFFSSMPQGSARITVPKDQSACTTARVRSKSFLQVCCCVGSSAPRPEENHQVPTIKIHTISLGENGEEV
# T15 sequence (O70528 whole entry): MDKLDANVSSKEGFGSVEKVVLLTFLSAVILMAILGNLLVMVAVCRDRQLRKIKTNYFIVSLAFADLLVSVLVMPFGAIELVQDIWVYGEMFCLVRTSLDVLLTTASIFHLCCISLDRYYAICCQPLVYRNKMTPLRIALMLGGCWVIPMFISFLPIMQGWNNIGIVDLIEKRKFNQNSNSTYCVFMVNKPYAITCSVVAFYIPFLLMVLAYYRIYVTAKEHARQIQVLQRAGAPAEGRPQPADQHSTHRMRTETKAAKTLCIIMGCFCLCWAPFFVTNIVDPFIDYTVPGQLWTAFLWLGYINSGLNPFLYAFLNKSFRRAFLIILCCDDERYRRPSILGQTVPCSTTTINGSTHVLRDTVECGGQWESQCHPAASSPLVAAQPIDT
# T5 sequence (P25021 whole entry): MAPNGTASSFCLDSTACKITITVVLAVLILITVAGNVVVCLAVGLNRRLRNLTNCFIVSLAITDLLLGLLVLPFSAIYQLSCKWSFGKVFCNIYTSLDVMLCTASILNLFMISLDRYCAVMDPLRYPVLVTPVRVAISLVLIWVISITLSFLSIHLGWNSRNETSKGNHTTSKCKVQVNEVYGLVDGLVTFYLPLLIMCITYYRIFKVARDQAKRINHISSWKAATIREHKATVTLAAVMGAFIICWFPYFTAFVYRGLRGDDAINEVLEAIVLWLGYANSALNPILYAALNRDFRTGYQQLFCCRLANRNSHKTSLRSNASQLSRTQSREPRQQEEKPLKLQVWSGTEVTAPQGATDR
# T19 sequence (Q9UBS5 15-961 limits assumed): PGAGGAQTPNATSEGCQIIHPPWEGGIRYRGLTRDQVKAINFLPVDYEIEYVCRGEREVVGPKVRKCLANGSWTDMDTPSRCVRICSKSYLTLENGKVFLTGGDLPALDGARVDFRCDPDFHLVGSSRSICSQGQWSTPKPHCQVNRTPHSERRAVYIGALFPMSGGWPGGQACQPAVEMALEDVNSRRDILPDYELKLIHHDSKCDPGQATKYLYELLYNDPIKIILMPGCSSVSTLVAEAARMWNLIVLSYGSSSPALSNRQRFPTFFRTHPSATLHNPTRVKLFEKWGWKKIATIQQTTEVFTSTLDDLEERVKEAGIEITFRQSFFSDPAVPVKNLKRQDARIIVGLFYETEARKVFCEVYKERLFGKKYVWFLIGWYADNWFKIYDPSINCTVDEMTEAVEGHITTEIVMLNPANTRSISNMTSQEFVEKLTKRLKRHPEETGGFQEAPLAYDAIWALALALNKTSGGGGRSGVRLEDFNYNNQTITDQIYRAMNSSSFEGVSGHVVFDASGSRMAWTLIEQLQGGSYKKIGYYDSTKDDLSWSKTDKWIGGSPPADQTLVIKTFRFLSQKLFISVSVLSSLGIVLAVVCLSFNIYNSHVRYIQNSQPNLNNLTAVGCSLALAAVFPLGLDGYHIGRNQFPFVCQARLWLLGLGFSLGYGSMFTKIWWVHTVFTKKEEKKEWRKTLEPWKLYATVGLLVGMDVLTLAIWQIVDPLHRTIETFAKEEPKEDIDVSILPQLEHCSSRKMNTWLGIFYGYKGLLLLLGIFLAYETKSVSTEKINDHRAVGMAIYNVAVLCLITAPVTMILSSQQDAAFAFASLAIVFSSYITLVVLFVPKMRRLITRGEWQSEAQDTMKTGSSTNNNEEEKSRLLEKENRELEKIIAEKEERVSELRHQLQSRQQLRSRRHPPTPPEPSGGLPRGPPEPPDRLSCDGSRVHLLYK
# T19 sequence (O75899 42-941 partner): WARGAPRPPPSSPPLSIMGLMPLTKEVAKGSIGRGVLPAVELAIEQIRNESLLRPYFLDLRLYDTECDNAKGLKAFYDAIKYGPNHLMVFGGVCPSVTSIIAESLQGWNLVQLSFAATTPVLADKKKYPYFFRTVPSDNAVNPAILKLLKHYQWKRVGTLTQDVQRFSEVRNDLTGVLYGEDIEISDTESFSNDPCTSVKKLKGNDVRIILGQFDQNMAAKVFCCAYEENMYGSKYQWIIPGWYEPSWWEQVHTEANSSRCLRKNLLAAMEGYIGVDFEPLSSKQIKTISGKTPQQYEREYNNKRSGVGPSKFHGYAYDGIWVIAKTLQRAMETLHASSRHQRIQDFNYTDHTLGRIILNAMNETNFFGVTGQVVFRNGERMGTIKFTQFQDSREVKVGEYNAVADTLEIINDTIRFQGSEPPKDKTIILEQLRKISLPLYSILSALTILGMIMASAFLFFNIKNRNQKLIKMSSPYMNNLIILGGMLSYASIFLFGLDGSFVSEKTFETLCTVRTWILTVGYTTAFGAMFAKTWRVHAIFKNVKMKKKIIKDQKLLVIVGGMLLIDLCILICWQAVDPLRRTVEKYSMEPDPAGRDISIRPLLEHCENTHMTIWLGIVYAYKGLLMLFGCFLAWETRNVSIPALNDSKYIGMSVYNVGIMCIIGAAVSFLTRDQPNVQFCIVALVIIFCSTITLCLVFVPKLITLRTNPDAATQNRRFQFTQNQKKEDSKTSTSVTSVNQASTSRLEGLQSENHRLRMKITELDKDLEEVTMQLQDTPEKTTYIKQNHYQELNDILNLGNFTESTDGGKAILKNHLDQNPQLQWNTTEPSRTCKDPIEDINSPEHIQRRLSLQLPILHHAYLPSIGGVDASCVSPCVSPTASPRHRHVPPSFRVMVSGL
compound,measurement,setting,value
"O=S(=O)(c1cccc(F)c1)n1ccc2c(N3CCNCC3)nc3ccccc3c21 [FPPQ, 1-[(3-Fluorophenyl)sulfonyl]-4-(piperazin-1-yl)-1H-pyrrolo[3,2-c]quinoline dihydrochloride]",IC50,[1],1250 nM
same,Ki,[1],1240 nM
same,inhibition at 0.01 µM,"[1]; read-out: %inh, 10 nM",1%
same,inhibition at 0.1 µM,"[1]; read-out: %inh, 0.1 μM",8%
same,inhibition at 1 µM,"[1]; read-out: %inh, 1 μM",42%
same,inhibition at 10 µM,"[1]; read-out: %inh, 10 μM",94%
same,inhibition at 10 µM,[1]; [4],96%
same,inhibition at 10 µM,"Glutamate NMDA, Glycine",-1%
same,IC50,Serotonin 5-HT1A,860 nM
same,Ki,Serotonin 5-HT1A,490 nM
same,inhibition at 0.01 µM,"Serotonin 5-HT1A; read-out: %inh, 10 nM",-2%
same,inhibition at 0.1 µM,"Serotonin 5-HT1A; read-out: %inh, 0.1 μM",16%
same,inhibition at 1 µM,"Serotonin 5-HT1A; read-out: %inh, 1 μM",53%
same,inhibition at 10 µM,"Serotonin 5-HT1A; read-out: %inh, 10 μM",87%
same,inhibition at 10 µM,Serotonin 5-HT1A; [4],91%
same,inhibition at 10 µM,Cathepsin G,-1%
same,inhibition at 10 µM,Adrenergic α1A,34%
same,inhibition at 10 µM,Histamine H2,45%
same,inhibition at 10 µM,Melanocortin MC4,27%
same,inhibition at 10 µM,Adrenergic α1B,29%
same,cytochrome P450 inhibition 2D6,CYP2D6,< 25% inh at 10 uM
same,inhibition at 10 µM,Chemokine CCR2 (IL-8RB),21%
same,inhibition at 10 µM,Chemokine CCR1,-6%
same,inhibition at 10 µM,Adrenergic α1D,24%
same,inhibition at 10 µM,COX-1,-6%
same,inhibition at 10 µM,Muscarinic M2,5%
same,inhibition at 10 µM,"Opiate σ1 (OP1, DOP)",7%
same,IC50,CYP2C19,10000 nM
same,inhibition at 10 µM,[2],14%
same,inhibition at 10 µM,Serotonin 5-HT4,30%
same,inhibition at 10 µM,MAO-A,12%
same,Ki,h5-HT1A,437 nM
same,IC50,Tachykinin NK1,13700 nM
same,Ki,Tachykinin NK1,9920 nM
same,inhibition at 0.1 µM,Tachykinin NK1; 0.1 μM,0%
same,inhibition at 1 µM,Tachykinin NK1; 1 μM,10%
same,inhibition at 10 µM,Tachykinin NK1,40%
same,inhibition at 10 µM,Tachykinin NK1; additional batch,58%
same,inhibition at 100 µM,Tachykinin NK1; 100 μM,92%
same,inhibition at 10 µM,[3],10%
same,inhibition at 10 µM,GABAB1A,13%
same,IC50,Adrenergic α2A,220 nM
same,Ki,Adrenergic α2A,110 nM
same,inhibition at 0.01 µM,"Adrenergic α2A; read-out: %inh, 10 nM",5%
same,inhibition at 0.1 µM,"Adrenergic α2A; read-out: %inh, 0.1 μM",32%
same,inhibition at 1 µM,"Adrenergic α2A; read-out: %inh, 1 μM",80%
same,inhibition at 10 µM,"Adrenergic α2A; read-out: %inh, 10 μM",97%
same,inhibition at 10 µM,Adrenergic α2A; [4],98%
